Assay results as given in paper PMC8780828 (Viruses, 2021).
Values after ≈ are worked out from the molar mass of the structure shown. Like-named read-outs stand apart in the source and are kept apart here.

Legend:
CYP2C8 = CYP2C8 (Homo sapiens, UniProt P10632); test: in vitro; settings: microsomes, pH 7.4
CYP1A2 = CYP1A2 (Homo sapiens, UniProt P05177); test: biochemical
CYP2C19 [1] = molecular target: T1, CYP2C19 (Homo sapiens, UniProt P33261); test: in vitro; settings: microsomes, pH 7.4
CYP2D6 = CYP2D6 (Homo sapiens, UniProt P10635); test: in vitro; settings: microsomes, pH 7.4
Sequence of CYP2D6 (P10635 whole entry): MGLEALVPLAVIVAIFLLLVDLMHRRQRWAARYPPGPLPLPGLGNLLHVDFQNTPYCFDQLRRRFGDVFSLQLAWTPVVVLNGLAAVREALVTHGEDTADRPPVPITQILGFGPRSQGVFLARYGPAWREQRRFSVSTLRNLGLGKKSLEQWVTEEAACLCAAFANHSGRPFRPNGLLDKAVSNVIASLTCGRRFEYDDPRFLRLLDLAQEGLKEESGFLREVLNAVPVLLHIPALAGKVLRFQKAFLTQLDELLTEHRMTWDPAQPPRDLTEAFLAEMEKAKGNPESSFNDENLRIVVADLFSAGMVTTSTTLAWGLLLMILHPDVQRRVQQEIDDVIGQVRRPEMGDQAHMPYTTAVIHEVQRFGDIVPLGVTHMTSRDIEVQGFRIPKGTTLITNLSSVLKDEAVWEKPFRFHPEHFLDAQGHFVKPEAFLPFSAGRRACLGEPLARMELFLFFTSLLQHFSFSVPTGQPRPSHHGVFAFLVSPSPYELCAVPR

CYP2B6 [2] = molecular target: T2, CYP2B6 (Homo sapiens, UniProt P20813); test: in vitro; settings: microsomes, pH 7.4
T2 sequence (P20813 whole entry): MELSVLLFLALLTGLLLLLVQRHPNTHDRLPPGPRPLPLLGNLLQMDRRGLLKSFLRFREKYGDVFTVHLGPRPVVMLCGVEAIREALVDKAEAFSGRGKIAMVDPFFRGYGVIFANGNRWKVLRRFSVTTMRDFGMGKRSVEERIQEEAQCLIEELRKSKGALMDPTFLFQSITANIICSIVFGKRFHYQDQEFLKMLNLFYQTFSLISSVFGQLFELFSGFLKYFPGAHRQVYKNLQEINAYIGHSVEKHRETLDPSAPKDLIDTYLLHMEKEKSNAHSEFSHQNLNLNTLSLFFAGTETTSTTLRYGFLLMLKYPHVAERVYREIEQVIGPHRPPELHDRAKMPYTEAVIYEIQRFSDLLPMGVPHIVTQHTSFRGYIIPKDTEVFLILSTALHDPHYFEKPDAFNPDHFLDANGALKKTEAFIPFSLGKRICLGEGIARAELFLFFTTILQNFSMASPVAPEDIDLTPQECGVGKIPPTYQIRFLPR

P-gp = test: in vitro; settings: human
[3] = system: pseudovirus NL4-3ΔEnv-NanoLuc/SARS-CoV-2; test: organism not typed; format: cell-based; settings: A549-ACE2; n=3
CYP2C19 [4] = molecular target: T1, CYP2C19; test: biochemical
in vitro = settings: both, human, plasma
CYP2C9 [5] = molecular target: T3, CYP2C9 (Homo sapiens, UniProt P11712); test: in vitro; settings: microsomes, pH 7.4
T3 sequence (P11712 whole entry): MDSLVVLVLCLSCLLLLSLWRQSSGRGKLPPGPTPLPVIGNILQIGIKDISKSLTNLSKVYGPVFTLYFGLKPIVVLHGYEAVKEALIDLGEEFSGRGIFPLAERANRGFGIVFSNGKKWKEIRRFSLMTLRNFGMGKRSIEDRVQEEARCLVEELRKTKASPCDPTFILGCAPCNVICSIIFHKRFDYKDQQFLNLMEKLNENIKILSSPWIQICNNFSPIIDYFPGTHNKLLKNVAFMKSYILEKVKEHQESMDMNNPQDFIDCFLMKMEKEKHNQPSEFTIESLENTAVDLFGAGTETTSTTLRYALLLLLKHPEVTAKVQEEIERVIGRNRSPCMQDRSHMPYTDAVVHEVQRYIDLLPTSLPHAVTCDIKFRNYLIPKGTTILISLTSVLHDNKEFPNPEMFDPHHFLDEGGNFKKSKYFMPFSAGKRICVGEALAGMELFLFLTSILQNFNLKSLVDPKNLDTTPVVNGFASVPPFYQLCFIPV

CYP2C9 [6] = molecular target: T3, CYP2C9; test: biochemical
[7] = system: pseudovirus NL4-3ΔEnv-NanoLuc/SARS-CoV; test: microbe, parasite or virus in culture; format: cell-based; settings: Severe acute respiratory syndrome coronavirus, A549-ACE2; n=3; read-out: IC50
pseudovirus SARS-CoV-2 = test: organism not typed; format: cell-based
[8] = molecular target: malate dehydrogenase (MDH); format: biochemical
CYP3A [9] = molecular target: T4, CYP3A (Homo sapiens, UniProt P08684); settings: n=1
T4 sequence (P08684 2-503): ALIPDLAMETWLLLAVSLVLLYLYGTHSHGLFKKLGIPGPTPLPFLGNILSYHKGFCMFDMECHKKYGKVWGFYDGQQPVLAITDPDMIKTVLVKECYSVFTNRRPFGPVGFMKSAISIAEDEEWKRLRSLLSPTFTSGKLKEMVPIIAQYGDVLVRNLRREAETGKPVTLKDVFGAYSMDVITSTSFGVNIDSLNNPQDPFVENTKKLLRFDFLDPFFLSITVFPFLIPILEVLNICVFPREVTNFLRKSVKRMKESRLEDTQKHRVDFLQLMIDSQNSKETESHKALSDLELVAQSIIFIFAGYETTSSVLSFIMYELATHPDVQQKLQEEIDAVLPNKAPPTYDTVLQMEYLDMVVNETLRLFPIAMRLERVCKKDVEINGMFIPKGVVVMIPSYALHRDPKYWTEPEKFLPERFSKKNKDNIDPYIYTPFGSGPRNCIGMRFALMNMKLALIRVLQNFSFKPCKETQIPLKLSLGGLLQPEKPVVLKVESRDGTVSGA

CYP3A [10] = molecular target: T4, CYP3A; test: in vitro; settings: microsomes
[11] = molecular target: SARS-CoV-2 spike S1 subunit protein (Severe acute respiratory syndrome coronavirus 2, UniProt P0DTC2); format: binding
[12] = system: NL4-3ΔEnv-NanoLuc/SARS-CoV-2; test: organism not typed; format: cell-based
[13] = system: pseudovirus NL4-3ΔEnv-NanoLuc/SARS-CoV; test: microbe, parasite or virus in culture; format: cell-based; settings: Severe acute respiratory syndrome coronavirus, HT-1080; n=3; read-out: IC50
CYP2B6 [14] = molecular target: T2, CYP2B6; test: biochemical
in vivo = settings: female, Sprague Dawley, rat; for MRT inf: MRT0-inf_obs; for half-life: t1/2
[15] = rat, in vivo
[16] = system: pseudovirus NL4-3ΔEnv-NanoLuc/SARS-CoV-2; test: organism not typed; format: cell-based; settings: HT-1080; n=3
[17] = system: pseudovirus NL4-3ΔEnv-NanoLuc/MERS-CoV; test: microbe, parasite or virus in culture; format: cell-based; settings: Middle East respiratory syndrome-related coronavirus, Huh-7; n=3; read-out: IC50
[18] = female, Sprague Dawley, iv, 5 mg/kg

T1 sequence (P33261 whole entry): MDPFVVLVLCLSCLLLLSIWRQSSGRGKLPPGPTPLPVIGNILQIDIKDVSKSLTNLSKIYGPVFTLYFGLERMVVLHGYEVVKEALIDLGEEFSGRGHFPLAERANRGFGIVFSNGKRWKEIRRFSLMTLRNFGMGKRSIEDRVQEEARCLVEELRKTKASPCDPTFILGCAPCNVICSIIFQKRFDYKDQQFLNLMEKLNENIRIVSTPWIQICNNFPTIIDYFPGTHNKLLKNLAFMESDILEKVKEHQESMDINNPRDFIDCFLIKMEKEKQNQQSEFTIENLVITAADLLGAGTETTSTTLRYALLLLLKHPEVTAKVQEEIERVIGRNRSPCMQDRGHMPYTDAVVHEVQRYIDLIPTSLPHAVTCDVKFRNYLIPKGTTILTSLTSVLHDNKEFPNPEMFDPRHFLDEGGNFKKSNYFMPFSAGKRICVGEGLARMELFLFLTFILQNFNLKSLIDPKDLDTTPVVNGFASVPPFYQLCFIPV
Sequence of CYP2C8 (P10632 whole entry): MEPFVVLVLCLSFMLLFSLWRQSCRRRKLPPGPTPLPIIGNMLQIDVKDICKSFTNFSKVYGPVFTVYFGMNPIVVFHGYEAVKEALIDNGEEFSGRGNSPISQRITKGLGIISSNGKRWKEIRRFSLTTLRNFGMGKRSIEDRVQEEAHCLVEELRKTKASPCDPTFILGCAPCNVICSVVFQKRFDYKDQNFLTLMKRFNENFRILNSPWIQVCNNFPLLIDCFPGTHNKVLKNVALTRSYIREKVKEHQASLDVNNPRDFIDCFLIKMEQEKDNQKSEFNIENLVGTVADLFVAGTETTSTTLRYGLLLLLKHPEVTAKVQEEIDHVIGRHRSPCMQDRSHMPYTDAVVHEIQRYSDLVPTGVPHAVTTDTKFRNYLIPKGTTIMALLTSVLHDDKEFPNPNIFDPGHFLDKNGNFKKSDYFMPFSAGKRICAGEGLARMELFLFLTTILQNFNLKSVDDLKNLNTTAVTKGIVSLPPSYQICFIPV
Sequence of CYP1A2 (P05177 whole entry): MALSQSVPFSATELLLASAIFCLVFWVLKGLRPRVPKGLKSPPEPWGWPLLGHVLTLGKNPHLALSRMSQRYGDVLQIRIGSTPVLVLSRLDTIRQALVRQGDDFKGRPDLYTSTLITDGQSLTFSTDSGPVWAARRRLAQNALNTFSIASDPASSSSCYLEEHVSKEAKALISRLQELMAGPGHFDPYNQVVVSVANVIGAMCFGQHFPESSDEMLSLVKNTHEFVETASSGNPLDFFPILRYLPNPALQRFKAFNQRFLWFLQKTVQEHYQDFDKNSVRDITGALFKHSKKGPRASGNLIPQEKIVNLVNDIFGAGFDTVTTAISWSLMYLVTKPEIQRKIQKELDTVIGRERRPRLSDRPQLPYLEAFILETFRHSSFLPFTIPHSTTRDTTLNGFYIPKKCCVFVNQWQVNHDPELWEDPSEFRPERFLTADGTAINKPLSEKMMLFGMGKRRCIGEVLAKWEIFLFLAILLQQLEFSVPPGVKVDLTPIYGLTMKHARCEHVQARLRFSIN

O=C(O)c1cc(-c2ccc(/C=C3\SC(=S)N(CCc4ccccc4)C3=O)o2)ccc1Cl [NBCoV1]
activity at 0.0137 µM (CYP2C8): 102% | activity at 0.0412 µM (CYP2C8): 89% | activity at 0.123 µM (CYP2C8): 98.3% | activity at 1.11 µM (CYP2C8): 76.9% | activity at 3.33 µM (CYP2C8): 25.3% | activity at 10 µM (CYP2C8): 3.87% | IC50 (CYP1A2): 7.4 µM | activity at 0.0137 µM (CYP2C19 [1]): 103% | activity at 0.0412 µM (CYP2C19 [1]): 110% | activity at 0.123 µM (CYP2C19 [1]): 101% | activity at 0.37 µM (CYP2C19 [1]): 102% | activity at 1.11 µM (CYP2C19 [1]): 92% | activity at 3.33 µM (CYP2C19 [1]): 70.8% | activity at 10 µM (CYP2C19 [1]): 40.7% | IC50 (CYP2D6): > 10 µM | activity at 0.0137 µM (CYP2D6): 95.8% | activity at 0.0412 µM (CYP2D6): 98.7% | activity at 0.123 µM (CYP2D6): 98.6% | activity at 0.37 µM (CYP2D6): 101% | activity at 1.11 µM (CYP2D6): 97% | activity at 3.33 µM (CYP2D6): 84.3% | activity at 10 µM (CYP2D6): 59.2% | Caco-2 permeability (mean Papp) A-to-B (Caco-2 cells; 5 µM): 2.05e-05 cm/s | Caco-2 permeability (mean Papp) B-to-A (Caco-2 cells; 5 µM): 2.36e-05 cm/s | P-gp Substrate classification (Caco-2 cells; Caco-2): Negative | activity at 0.0137 µM (CYP2B6 [2]): 97.5% | activity at 0.0412 µM (CYP2B6 [2]): 98.1% | activity at 0.123 µM (CYP2B6 [2]): 90.4% | activity at 0.37 µM (CYP2B6 [2]): 94.2% | activity at 1.11 µM (CYP2B6 [2]): 76.9% | activity at 3.33 µM (CYP2B6 [2]): 47% | activity at 10 µM (CYP2B6 [2]): 15.2% | Papp A→B (P-gp; Caco-2, pH 7.4, Caco-2 permeability (mean Papp) A-to-B, 5 µM): 16.9 ×10⁻⁶ cm/s | Papp B→A (P-gp; Caco-2, pH 7.4, Caco-2 permeability (mean Papp) B-to-A, 5 µM): 20.4 ×10⁻⁶ cm/s | Papp A→B (P-gp; Caco-2, pH 7.4, Papp A-to-B, single replicates (R1, R2)): 20.4 ×10⁻⁶ cm/s | Papp B→A (P-gp; Caco-2, pH 7.4, Papp B-to-A, single replicates (R1, R2)): 20.9 ×10⁻⁶ cm/s | solubility (physchem; pH 7.4, Solubility (AVG)): 4.72 µM (≈ 2.22 µg/mL) | solubility (physchem; pH 7.4, Solubility, single replicates (R1, R2)): 4.35 µM (≈ 2.04 µg/mL) | IC50 [3]: 63.6 ± 4.6 nM | IC50 (CYP2C19 [4]): 7.31 µM | fraction unbound (in vitro): < 0.005 | fraction unbound (in vitro; % Bound, single replicates (R1, R2)): < 0.005 | activity at 0.0137 µM (CYP2C9 [5]): 99.4% | activity at 0.0412 µM (CYP2C9 [5]): 98.2% | activity at 0.123 µM (CYP2C9 [5]): 97.2% | activity at 0.37 µM (CYP2C9 [5]): 95.1% | activity at 1.11 µM (CYP2C9 [5]): 85.1% | activity at 3.33 µM (CYP2C9 [5]): 59.9% | activity at 10 µM (CYP2C9 [5]): 29.8% | IC50 (CYP2C9 [6]): 5.01 µM | IC50 [7]: 98 ± 4 nM | IC50 (pseudovirus SARS-CoV-2; 293T/ACE2): 50 nM | IC50 (pseudovirus SARS-CoV-2; read-out: IC50): 45 nM | IC50 [8]: > 2000 nM | % of Control Enzyme Activity (CYP3A [9]; 0.0137 μM): 96.6% | % of Control Enzyme Activity (CYP3A [9]; 0.0412 μM): 97.0% | % of Control Enzyme Activity (CYP3A [9]; 0.123 μM): 94.8% | % of Control Enzyme Activity (CYP3A [9]; 0.370 μM, 0.37 µM): 96.3% | % of Control Enzyme Activity (CYP3A [9]; 1.11 μM): 94.6% | % of Control Enzyme Activity (CYP3A [9]; 3.33 μM): 82.2% | % of Control Enzyme Activity (CYP3A [9]; 10 μM): 59.9% | IC50 (CYP3A [10]; pH 7.4): > 10 µM | activity at 0.0137 µM (CYP3A [10]; pH 7.4, % of Control Enzyme Activity, 0.0137 μM, n=1): 96.7% | activity at 0.0412 µM (CYP3A [10]; pH 7.4, % of Control Enzyme Activity, 0.0412 μM, n=1): 97% | activity at 0.123 µM (CYP3A [10]; pH 7.4, % of Control Enzyme Activity, 0.123 μM, n=1): 94.5% | activity at 0.37 µM (CYP3A [10]; pH 7.4, % of Control Enzyme Activity, 0.370 μM, n=1): 95.1% | activity at 1.11 µM (CYP3A [10]; pH 7.4, % of Control Enzyme Activity, 1.11 μM, n=1): 95.9% | activity at 3.33 µM (CYP3A [10]; pH 7.4, % of Control Enzyme Activity, 3.33 μM, n=1): 88.2% | activity at 10 µM (CYP3A [10]; pH 7.4, % of Control Enzyme Activity, 10 μM, n=1): 61.6% | kd [11]: 0.0257 s⁻¹ | IC100 (range of IC100 values detected in the three cell lines) [12]: 0.25 to 1 µM | IC50 ([12]; read-out: IC50 (range over the three cell lines)): 32.3 to 63.4 nM | IC50 [13]: 39 ± 8.2 nM | IC50 (CYP2B6 [14]): 3.19 µM | bioavailability (in vivo; F% (bioavailability)): 20% | C0 (in vivo; iv, 5 mg/kg): 7410 ng/mL | Tmax (in vivo; iv, 5 mg/kg): 0.25 h | Cmax (in vivo; iv, 5 mg/kg): 7820 ng/mL | MRT inf (in vivo; iv, 5 mg/kg): 4.02 h | half-life (in vivo; iv, 5 mg/kg): 214 min | Tmax (in vivo; po, 10 mg/kg): 2 h | Cmax (in vivo; po, 10 mg/kg): 1500 ng/mL | MRT inf (in vivo; po, 10 mg/kg): 14 h | half-life (in vivo; po, 10 mg/kg): 678 min | F% (bioavailability) ([15]; female, Sprague Dawley): 20.1% | CLobs [15, 18]: 0.00013 (mg/kg)/(ng/mL)/h | Vss_obs [15, 18]: 0.00053 (mg/kg)/(ng/mL) | AUC0-t ([15]; iv, 5 mg/kg): 37,515.91 ng/mL ∗ h | AUC0-t ([15]; po, 10 mg/kg): 12,023.00 ng/mL ∗ h | Vz/F_obs ([15]; po, 10 mg/kg): 0.01078 (mg/kg)/(ng/mL) | IC50 [16]: 32.3 ± 4.6 nM | IC50 [17]: 95 ± 22 nM
